According to patent US6369109B1, “Betulinic acid and derivatives thereof useful for the treatment of neuroectodermal tumor” (Deutsches Krebsforschungszentrum Stiftung des Offentlichen …, priority 1998, dated 2002):
“Also recorded” adds a separate entry of the source.

Tests used:
Assay type in all cases: cell-based, human
[1] = test system: CD95-L mRNA in SH-EP neuroblastoma cells; assay: CD95-L mRNA expression by RT-PCR; conditions: 5 and 10 μg/ml betulinic acid; 0.5 μg/ml doxorubicin 24 h; FIG. 3A
Procedure: Total RNA was prepared using the Qiagen total RNA kit (Qiagen, Hilden, Germany). RNA was converted to cDNA by reverse transcription and amplified for 38 cycles by PCR in a thermocycler (Stratagene, Heidelberg, Germany) using the Gene Amplification RNA-PCR kit (Perkin-Elmer, Branchburg, N.J.) following the manufacturer's instructions. Primers used for amplification of the CD95-L fragment are according to the sequence of human CD95-L (Suda et al., 1995, Cell 75:1169-1178; Herr et al., 1996, Cell Death Diff., 5:299-305). Expression of β-actin (MWG-Biotech, Ebersberg, Germany) was used as an internal standard for RNA integrity and equal gel loading. PCR products were run at 60 V for 2 h on a 1.5% agarose gel stained with ethidium bromide and visualized by UV illumination.
SH-EP neuroblastoma cells were incubated with 5 and 10 μg/ml betulinic acid for the indicated times or with 0.5 μg/ml doxorubicin for 24 h. CD95-L mRNA expression was determined by RT-PCR. Expression of μ-actin was used to control RNA integrity and equal gel loading.

[2] = test system: p53 protein in SH-EP neuroblastoma cells; assay: Western blot of p53 accumulation; conditions: 10 μg/ml betulinic acid; 0.5 μg/ml doxorubicin 12 h; FIG. 5D
Procedure: Cells were lysed for 30 min at 4° C. in PBS with 0.5% Triton X (Serva, Heidelberg, Germany) and 1 mM phenylmethylsulfonyl fluoride (Sigma, Deisenhofen, Germany) followed by high-speed centrifugation. Membrane proteins were eluted in buffer containing 0.1 M glycine. PH 3.0 and 1.5 M Tris, pH 8.8. Protein concentration was assayed using bicinchoninic acid (Pierce Chemical Co., Rockford, Ill.). Forty μg of protein per lane were separated by 12% SDS-PAGE and electroblotted onto nitrocellulose (Amersham, Braunschweig, Germany). Equal protein loading was controlled by Ponceau red staining of membranes. After blocking for 1 h in PBS supplemented with 2% BSA (Sigma) and 0.1% Tween 20 (Sigma), immunodetection of FLICE, CPP32, PARP, Bax, Bcl-x, Bcl-2, and p53 protein was done using mouse anti-FLICE monoclonal antibody C15 (1:5 dilution of hybridoma supernatant), mouse anti-CPP32 monoclonal antibody (1:1000, Transduction Laboratories, Lexington, KY), rabbit anti-PARP polyclonal antibody (1:10000, Enzyme Systems Products), rabbit anti-Bax polyclonal antibody (1:500, Calbiochem, Bad Soden, Germany), rabbit anti-Bcl-x polyclonal antibody (1:1000, Santa Cruz Biotechnology, Santa Cruz, Calif.), mouse anti-p53 monoclonal antibody (1:10000, Transduction Laboratories), and goat anti-mouse 1gG or goat antirabbit IgG (1:5000, Santa Cruz Biotechnology), ECL (Amersham) was used for detection. […]

[3] = test system: CD95-resistant SH-EP^CD95R cells; assay: Specific apoptosis in resistant cells, FACS of propidium iodide-stained nuclei; conditions: 10 μg/ml betulinic acid or 0.5 μg/ml doxorubicin, 72 h; FIG. 6A
Source text: (§1) Neuroblastoma (SH-EP, IMR-32, Kelly, and LAN-5, kindly provided by Professor M. Schwab, German Cancer Research Center, Heidelberg, Germany), medulloblastoma cells (Daoy, kindly provided by Dr. T. Pietsch, Department of Neuropathology, University of Bonn Medical Center, Bonn, Germany), Ewing's sarcoma cells (A17/95, kindly provided by Dr. U. Anderer, Institute of Pathology, Humboldt University, Berlin, Germany), melanoma (A-378), breast carcinoma (MCF-71), colon carcinoma (HT-29), small cell lung carcinoma (H-126), renal cell carcinoma (KTCTL-26, kindly provided by H. Lörke, German Cancer Research Center, Heidelberg, Germany) and T-cell leukemia (CEM) cells were cultured in RPMI 1640 (Life Technologies, Inc., Eggenstein, Germany) supplemented with 10% heat-inactivated fetal bovin serum (FCS) from Conco. […]
(§2) Quantification of DNA fragmentation was performed by FACS analysis of propidium iodide stained nuclei as described in Nicoletti et al, 1991, J. Immunol. […] Cells were analyzed for DNA content by flow. cytometry (FACScan, Becton Dickinson, Heidelberg, Germany) using CELLQuest software. […] Cells were analyzed by flow cytometry (FAC-Scan. Becton Dickinson) using CELLQuest software.
(§3) SH-EP neuroblastoma cells (▪). […] Specific apoptosis was determined and calculated as described in the legend to FIG. 1A. […]

[4] = test system: doxorubicin-resistant SH-EP^DoxoR cells; assay: as above; conditions: 10 μg/ml betulinic acid or 0.5 μg/ml doxorubicin, 72 h; FIG. 6A
Source text: as §1, §2, §3

COc1cccc2c1C(=O)c1c(O)c3c(c(O)c1C2=O)C[C@@](O)(C(=O)CO)C[C@@H]3O[C@H]1C[C@H](N)[C@H](O)[C@H](C)O1 [doxorubicin]
CD95-L mRNA induction [1]: strongly up-regulated CD95-L mRNA | accumulation of p53 protein [2]: induces the accumulation of p53 protein; also recorded: strongly increased | response of anti-CD95-resistant cells (specific apoptosis) [3]: partially resistant to doxorubicin | response of doxorubicin-resistant cells (specific apoptosis) [4]: partially resistant to doxorubicin
